Laboratory results published in patent US8680113B2, “BMI-1 protein expression modulators” (PTC Therapeutics, Inc., priority 2008, dated 2014).
Each block holds one compound with its values, some of them ahead of it.

Legend:
[1] = tested on: Bmi-1; test: Cell Model Assay: Bmi-1 expression in KG1; assay type: cell-based; conditions: KG1 (acute myelogenous leukemia)
Protocol: (§1) Using assay conditions known to those skilled in the art, the ability of the compounds described herein to reduce Bmi-1 expression in HT1080 (fibrosarcoma), U87-MG (glioblastoma), T98G (glioblastoma), K562 (chronic myelogenous leukemia) and KG1 (acute myelogenous leukemia) cell lines was tested (at test compound concentrations calculated from the ELISA assay data shown in Example 1) compared to puromycin as a control to provide the EC50 values shown in Table 2. The term “ND” means that data was not determined.

[2] = tested on: Bmi-1; test: Cell Model Assay: Bmi-1 expression in K562; assay type: cell-based; conditions: K562 (chronic myelogenous leukemia)
Protocol: as §1

[3] = tested on: Bmi-1; test: Sandwich ELISA Assay (Bmi-1 ELISA in HT-1080 cells); assay type: cell-based, human
How it was run: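 Lysate Bmi-1 was quantified against a recombinant GST-Bmi-1 standard (0-8000 pg/mL) by sandwich ELISA read at OD450 with OD570 reference. The ELISA used mouse monoclonal capture, rabbit anti-Bmi-1, HRP anti-rabbit IgG and TMB. Before lysis, HT-1080 cells seeded at 8000/well were exposed to compounds for 40-48 h at 37°C with 0.5% final DMSO.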

[4] = tested on: Bmi-1; test: Cell Model Assay: Bmi-1 expression in HT1080; assay type: cell-based, human; conditions: HT1080 (fibrosarcoma)
Protocol: as §1

[5] = tested on: Bmi-1; test: Cell Model Assay: Bmi-1 expression in U87-MG; assay type: cell-based; conditions: U87-MG (glioblastoma)
Protocol: as §1

[6] = tested on: Bmi-1; test: Cell Model Assay: Bmi-1 expression in T98G; assay type: cell-based; conditions: T98G (glioblastoma)
Protocol: as §1

[7] = tested on: MCL-Jeko; test: Mantle Cell Lymphoma Assay: cytotoxicity, Jeko; assay type: cell-based; conditions: 72 hrs in culture
Excerpt: (§2) MCL cell lines Jeko, Mino, and Rec-1 were provided by American Type Culture Collection: The Bioresource Center (Manassas, Va.). […] Carlsbad, Calif.) in T-75 culture flasks. Cell concentration was maintained between 2 to 3×10^5 cells/mL. Early passage cells (passages 2-4) were used for all experiments. Ficoll-Histopaque density sedimentation (Sigma Aldrich) was used for separation of debris and purification of cell lines prior to experiments. […] The cytotoxic effect of test compounds on the MCL-cell lines was assessed by measuring cell concentration and cell viability using a Beckman Coulter Vi-Cell Counter. Controls and treated cells were harvested and counted at day 3.

[8] = tested on: MCL-Mino; test: Mantle Cell Lymphoma Assay: cytotoxicity, Mino; assay type: cell-based; conditions: 72 hrs in culture
Excerpt: as §2

[9] = tested on: MM cell line; test: Multiple Myeloma Assay; assay type: cell-based; conditions: 72 hrs in culture
[10] = tested on: MCL-Rec1; test: Mantle Cell Lymphoma Assay: cytotoxicity, Rec-1; assay type: cell-based; conditions: 72 hrs in culture
Excerpt: as §2

EC50 [1]: 48 nM
EC50 [2]: 261 nM
IC50 [3]: < 500 nM
SMILES: COc1cccc(Nc2nccc(-c3cnc4ccccn34)n2)c1 [Cpd 28, 4-(imidazo[1,2-a]pyridine-3-yl)-N-(3-methoxyphenyl)pyrimidin-2-amine]

EC50 [4]: 4 nM
EC50 [1]: 48 nM
EC50 [2]: < 4 nM
IC50 [3]: < 500 nM
SMILES: Cc1nc2ccc(Cl)cn2c1-c1csc(Nc2ccc3c(c2)OCO3)n1 [Cpd 30, N-(benzo[d][1,3]dioxol-5-yl)-4-(6-chloro-2-methylimidazo[1,2-a]pyridin-3-yl)thiazol-2-amine]

Continued, compound first:

SMILES: Cc1nc2ccc(Cl)cn2c1-c1csc(Nc2ccc(I)cc2)n1 [Cpd 29, 4-(6-chloro-2-methylimidazo[1,2-a]pyridin-3-yl)-N-(4-iodophenyl)thiazol-2-amine]
EC50 [1]: 304 nM
EC50 [2]: 5 nM
IC50 [3]: < 500 nM

SMILES: Cc1nc2ncccn2c1-c1csc(Nc2ccc(I)cc2)n1 [Cpd 39, N-(4-iodophenyl)-4-(2-methylimidazo[1,2-a]pyrimidin-3-yl)-1,3-thiazol-2-amine]
EC50 [4]: 5 nM
EC50 [5]: < 4 nM
EC50 [6]: < 4 nM
IC50 [3]: < 500 nM

SMILES: COCCOc1cc(Br)c(Nc2nc(-c3cnc4ccc(Cl)cn34)cs2)c(Br)c1 [Cpd 134, 4-(6-chloroimidazo[1,2-a]pyridin-3-yl)-N-[2,6-dibromo-4-(2-methoxyethoxy)phenyl]-1,3-thiazol-2-amine]
Cell Concentration, MCL-Jeko ([7]; dose 0.004 μM): 2.11 ± 0.04 ×10^6
viability at 0.004 µM ([7]; dose 0.004 μM, read-out: Cell Viability, MCL-Jeko): 94.1 ± 0.23%
Cell Concentration, MCL-Jeko ([7]; dose 0.037 μM): 2.11 ± 0.03 ×10^6
viability at 0.037 µM ([7]; dose 0.037 μM, read-out: Cell Viability, MCL-Jeko): 94.37 ± 0.18%
Cell Concentration, MCL-Jeko ([7]; dose 0.11 μM): 1.97 ± 0.11 ×10^6
viability at 0.11 µM ([7]; dose 0.11 μM, read-out: Cell Viability, MCL-Jeko): 93.77 ± 0.15%
Cell Concentration, MCL-Jeko ([7]; dose 0.33 μM): 1.95 ± 0.02 ×10^6
viability at 0.33 µM ([7]; dose 0.33 μM, read-out: Cell Viability, MCL-Jeko): 93.67 ± 0.13%
Cell Concentration, MCL-Jeko ([7]; dose 1 μM): 1.82 ± 0.05 ×10^6
viability at 1 µM ([7]; dose 1 μM, read-out: Cell Viability, MCL-Jeko): 93.87 ± 0.06%
Cell Concentration, MCL-Jeko ([7]; dose 3 μM): 1.81 ± 0.02 ×10^6
viability at 3 µM ([7]; dose 3 μM, read-out: Cell Viability, MCL-Jeko): 92.4 ± 0.22%
viability at 0.004 µM ([8]; Homo sapiens, MINO, dose 0.004 μM, read-out: Cell Viability, MCL-Mino): 84.8 ± 0.7%
viability at 0.037 µM ([8]; Homo sapiens, MINO, dose 0.037 μM, read-out: Cell Viability, MCL-Mino): 86.2 ± 0.8%
viability at 0.11 µM ([8]; Homo sapiens, MINO, dose 0.11 μM, read-out: Cell Viability, MCL-Mino): 84.6 ± 0.5%
viability at 0.33 µM ([8]; Homo sapiens, MINO, dose 0.33 μM, read-out: Cell Viability, MCL-Mino): 83.8 ± 0.2%
viability at 1 µM ([8]; Homo sapiens, MINO, dose 1 μM, read-out: Cell Viability, MCL-Mino): 81.4 ± 0.8%
viability at 3 µM ([8]; Homo sapiens, MINO, dose 3 μM, read-out: Cell Viability, MCL-Mino): 79 ± 0.8%
Cell Concentration, MCL-Mino ([8]; dose 0.004 μM): 0.63 ± 0.01 ×10^6
Cell Concentration, MCL-Mino ([8]; dose 0.037 μM): 0.65 ± 0.01 ×10^6
Cell Concentration, MCL-Mino ([8]; dose 0.11 μM): 0.65 ± 0.01 ×10^6
Cell Concentration, MCL-Mino ([8]; dose 0.33 μM): 0.59 ± 0.01 ×10^6
Cell Concentration, MCL-Mino ([8]; dose 1 μM): 0.56 ± 0.02 ×10^6
Cell Concentration, MCL-Mino ([8]; dose 3 μM): 0.47 ± 0.02 ×10^6
Cell Concentration, MM cell line ([9]; dose 0.004 μM): 1.36 ± 0.01 ×10^6
viability at 0.004 µM ([9]; dose 0.004 μM): 91.17 ± 0.43%
Cell Concentration, MM cell line ([9]; dose 0.037 μM): 1.33 ± 0.01 ×10^6
viability at 0.037 µM ([9]; dose 0.037 μM): 90.27 ± 0.1%
Cell Concentration, MM cell line ([9]; dose 0.11 μM): 1.28 ± 0.01 ×10^6
viability at 0.11 µM ([9]; dose 0.11 μM): 87.93 ± 0.5%
Cell Concentration, MM cell line ([9]; dose 0.33 μM): 1.18 ± 0.04 ×10^6
viability at 0.33 µM ([9]; dose 0.33 μM): 86.1 ± 0.31%
Cell Concentration, MM cell line ([9]; dose 1 μM): 1.06 ± 0.01 ×10^6
viability at 1 µM ([9]; dose 1 μM): 83.47 ± 0.46%
Cell Concentration, MM cell line ([9]; dose 3 μM): 0.75 ± 0.03 ×10^6
viability at 3 µM ([9]; dose 3 μM): 76.5 ± 1.48%
viability at 0.004 µM ([10]; Homo sapiens, Rec1, dose 0.004 μM, read-out: Cell Viability, MCL-Rec1): 89.43 ± 0.18%
viability at 0.037 µM ([10]; Homo sapiens, Rec1, dose 0.037 μM, read-out: Cell Viability, MCL-Rec1): 88.9 ± 1%
viability at 0.11 µM ([10]; Homo sapiens, Rec1, dose 0.11 μM, read-out: Cell Viability, MCL-Rec1): 90.2 ± 0.63%
viability at 0.33 µM ([10]; Homo sapiens, Rec1, dose 0.33 μM, read-out: Cell Viability, MCL-Rec1): 88.63 ± 0.24%
viability at 1 µM ([10]; Homo sapiens, Rec1, dose 1 μM, read-out: Cell Viability, MCL-Rec1): 88.43 ± 0.48%
viability at 3 µM ([10]; Homo sapiens, Rec1, dose 3 μM, read-out: Cell Viability, MCL-Rec1): 86.67 ± 0.84%
Cell Concentration, MCL-Rec1 ([10]; dose 0.004 μM): 0.84 ± 0.02 ×10^6
Cell Concentration, MCL-Rec1 ([10]; dose 0.037 μM): 0.86 ± 0.02 ×10^6
Cell Concentration, MCL-Rec1 ([10]; dose 0.11 μM): 0.90 ± 0.01 ×10^6
Cell Concentration, MCL-Rec1 ([10]; dose 0.33 μM): 0.85 ± 0.02 ×10^6
Cell Concentration, MCL-Rec1 ([10]; dose 1 μM): 0.78 ± 0.03 ×10^6
Cell Concentration, MCL-Rec1 ([10]; dose 3 μM): 0.73 ± 0.02 ×10^6
IC50 [3]: < 500 nM
